Test results: patent US20080119467A1, “Purine Derivatives, Compositions Containing Them and Use Thereof” (AVENTIS PHARMA S.A., priority 2005, published 2008)
Where a name gives a salt, the structure may show the parent alone.

Biological target: Hsp82 (Saccharomyces cerevisiae, UniProt P02829)
Assay: Inhibition of the ATPase activity of Hsp82 in the enzymatic coupling system (pyruvate kinase / lactate dehydrogenase)
Type: biochemical
Conditions: ATPase activity of Hsp82, PK/LDH enzymatic coupling system, 1 μM Hsp82, 250 μM ATP, 37° C., 340 nm
Source text: The formation of ADP due to the ATPase activity of Hsp82 was utilized for developing another method for evaluating the enzymatic activity of this enzyme by the application of an enzymatic coupling system employing pyruvate kinase (PK) and lactate dehydrogenase (LDH). In this spectrophotometric method of the kinetic type, the PK catalyzes the formation of ATP and pyruvate from phosphenol-pyruvate (PEP) and of ADP produced by HSP82. The pyruvate formed, which is a substrate of LDH, is then converted to lactate in the presence of NADH. In this case, the decrease in the concentration of NADH, measured from the decrease in absorbance at a wavelength of 340 nm, is proportional to the concentration of ADP produced by HSP82. The test products are incubated in a reaction volume of 100 μl of compound buffer of 100 mM Hepes-NaOH (pH 7.5), 5 mM MgCl2, 1 mM DTT, 150 mM KCl, 0.3 mM NADH, 2.5 mM PEP and 250 μM ATP. This mixture is preincubated at 37° C. for 30 min before adding 3.77 units of LDH and 3.77 units of PK. The reaction is initiated by addition of the product to be evaluated, at variable concentrations, and of Hsp82, at a concentration of 1 μM. Then the enzymatic activity of Hsp82 is measured, continuously, in a microplate reader, at 37° C., at a wavelength of 340 nm. The initial rate of the reaction is obtained by measuring the slope of the tangent of the recorded curve to the origin. The enzymatic activity is expressed as μM of ADP formed per minute. The effect of the various products tested is expressed as percentage inhibition of the ATPase activity. The inhibitory activities on the ATPase activity of Hsp82 obtained with the products of the invention in the enzymatic coupling system are presented in the following table, according to the following criteria of inhibition of the ATPase activity of Hsp82: […]

Hsp82, sequence (P02829 whole entry): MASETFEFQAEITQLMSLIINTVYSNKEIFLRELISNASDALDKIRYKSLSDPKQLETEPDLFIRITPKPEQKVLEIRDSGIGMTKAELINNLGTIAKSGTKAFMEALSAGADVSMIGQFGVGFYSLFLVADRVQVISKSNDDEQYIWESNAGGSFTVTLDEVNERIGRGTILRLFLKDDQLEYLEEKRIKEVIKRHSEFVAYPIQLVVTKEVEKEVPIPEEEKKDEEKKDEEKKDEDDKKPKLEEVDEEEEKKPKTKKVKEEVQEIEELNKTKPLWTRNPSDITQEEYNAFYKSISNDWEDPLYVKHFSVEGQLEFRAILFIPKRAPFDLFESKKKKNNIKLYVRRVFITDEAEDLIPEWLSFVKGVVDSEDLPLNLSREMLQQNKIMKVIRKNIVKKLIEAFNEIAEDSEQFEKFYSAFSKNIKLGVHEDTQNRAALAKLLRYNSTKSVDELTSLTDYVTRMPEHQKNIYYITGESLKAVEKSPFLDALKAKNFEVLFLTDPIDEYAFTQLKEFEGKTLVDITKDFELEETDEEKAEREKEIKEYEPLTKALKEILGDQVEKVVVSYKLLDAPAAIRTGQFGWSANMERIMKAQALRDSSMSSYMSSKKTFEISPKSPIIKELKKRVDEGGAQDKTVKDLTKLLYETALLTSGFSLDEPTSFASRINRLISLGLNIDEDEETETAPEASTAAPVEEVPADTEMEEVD

IC50 [µM] | SMILES
< 1 | Cl.Clc1nc(N2CCN(Cc3ccccc3)CC2)c2nc[nH]c2n1 [Example 1, 2-Chloro-6-[4-(phenylmethyl)-piperazin-1-yl]-1H-purine monohydrochloride]
< 1 | Clc1nc(N2CCN(c3ccccn3)CC2)c2nc[nH]c2n1 [Example 2, 2-chloro-6-[4-(pyridin-2-yl)-piperazin-1-yl]1H-purine]
1 to 10 | Clc1nc(N2CCOCC2)c2nc[nH]c2n1 [Example 3, 2-chloro-6-(morpholin-4-yl)-1H-purine]
1 to 10 | Clc1nc(N2CCSCC2)c2nc[nH]c2n1 [Example 4, 2-chloro-6-(thiamorpholin-4-yl)-1H-purine]
< 1 | Clc1nc(N2CCCCC2)c2nc[nH]c2n1 [Example 5, 2-chloro-6-(piperidin-1-yl)-1H-purine]
1 to 10 | Clc1nc(N2CCN(C(c3ccccc3)c3ccccc3)CC2)c2nc[nH]c2n1 [Example 6, 2-chloro-6-[4-(diphenylmethyl)-piperazin-1-yl]1H-purine]
10 to 100 | Clc1nc(NC2CCCC2)c2nc[nH]c2n1 [Example 7, 2-chloro-6-cyclopentylamino-1H-purine]
< 1 | Clc1nc(N2CCC(Cc3ccccc3)CC2)c2nc[nH]c2n1 [Example 8, 2-Chloro-6-[4-(phenylmethyl)-piperidin-1-yl]-1H-purine monohydrochloride]
1 to 10 | Clc1nc(N2CCN(c3ccccc3)CC2)c2nc[nH]c2n1 [Example 9, 2-Chloro-6-(4-phenyl-piperazin-1-yl)-1H-purine monohydrochloride]
10 to 100 | COc1ccc(CN2CCN(c3nc(Cl)nc4[nH]cnc34)CC2)cc1OC [Example 10, 2-chloro-6-[4-(3,4-dimethoxy-phenyl)methyl-piperazin-1-yl]1H-purine]
1 to 10 | Clc1nc(N2CCN(c3cccnc3)CC2)c2nc[nH]c2n1 [Example 11, 2-chloro-6-[4-(pyridin-3-yl)-piperazin-1-yl]1H-purine]
1 to 10 | NC(=O)c1cccc(N2CCN(c3nc(Cl)nc4[nH]cnc34)CC2)c1 [Example 12, 2-chloro-6-[4-(3-carboxamido-phenyl)-piperazin-1-yl]1H-purine]
10 to 100 | Clc1cccc(N2CCN(c3nc(Cl)nc4[nH]cnc34)CC2)c1 [Example 13, 2-Chloro-6-[4-(3-chloro-phenyl)-piperazin-1-yl]1H-purine]
10 to 100 | COc1cc(C(=O)N2CCN(c3nc(Cl)nc4[nH]cnc34)CC2)cc(OC)c1OC [Example 14, 2-chloro-6-[4-(3,4,5-trimethoxy-phenyl)carbonyl-piperazin-1-yl]1H-purine]
1 to 10 | O=C(c1ccccc1)N1CCN(c2nc(Cl)nc3[nH]cnc23)CC1 [Example 15, 2-chloro-6-[4-(phenyl)carbonyl-piperazin-1-yl]1H-purine]
< 1 | Clc1nc(N2CCC(Nc3ccccc3)CC2)c2nc[nH]c2n1 [Example 16, 2-Chloro-6-[4-(phenylamino)-piperidin-1-yl]-1H-purine monohydrochloride]
1 to 10 | Cc1cccc(N2CCN(c3nc(Cl)nc4[nH]cnc34)CC2)n1 [Example 18, 2-Chloro-6-[4-(6-methyl-pyridin-2-yl)-piperazin-1-yl]-1H-purine monohydrochloride]
< 1 | Clc1nc(N2CCN(c3ncccn3)CC2)c2nc[nH]c2n1 [Example 19, 2-Chloro-6-[4-(pyrimidin-2-yl)-piperazin-1-yl]-1H-purine monohydrochloride]
10 to 100 | COc1ccccc1N1CCN(c2nc(Cl)nc3[nH]cnc23)CC1 [Example 20, 2-Chloro-6-[4-(2-methoxy-phenyl)-piperazin-1-yl]-1H-purine monohydrochloride]
< 1 | Clc1nc(N2CCN(c3ccc4ccccc4n3)CC2)c2nc[nH]c2n1 [Example 21, 2-Chloro-6-[4-(quinolein-2-yl)-piperazin-1-yl]-1H-purine monohydrochloride]
1 to 10 | FC(F)(F)c1ccccc1N1CCN(c2nc(Cl)nc3[nH]cnc23)CC1 [Example 22, 2-chloro-6-[4-(2-trifluoromethyl-phenyl)-piperazin-1-yl]1H-purine]
1 to 10 | Fc1nc(N2CCN(c3ccccn3)CC2)c2nc[nH]c2n1 [Example 23, 2-Fluoro-[4-(pyridin-2-yl)-piperazin-1-yl]1H-purine]
1 to 10 | FC(F)(F)c1cccnc1N1CCN(c2nc(Cl)nc3[nH]cnc23)CC1 [Example 24, 2-Chloro-6-[4-(3-trifluoromethyl-pyridin-2-yl)-piperazin-1-yl]-9H-purine]
< 1 | OCc1cc(F)ccc1N1CCN(c2nc(Cl)nc3[nH]cnc23)CC1 [Example 26, {2-[4-(2-Chloro-9H-purin-6-yl)-piperazin-1-yl]-5-fluoro-phenyl}-methanol]
< 1 | NC(=O)c1cccnc1N1CCN(c2nc(Cl)nc3[nH]cnc23)CC1 [Example 27, 2-[4-(2-Chloro-9H-purin-6-yl)-piperazin-1-yl]-nicotinamide]
1 to 10 | Clc1nc(N2CCN(Cc3ccccc3)CC2)c2cc[nH]c2n1 [Example 28, 4-(4-Phenylmethyl-piperazin-1-yl)-2-chloro-7H-pyrrolo[2,3-d]pyrimidine]
< 1 | Clc1nc(N2CCN(c3ccccn3)CC2)c2cc[nH]c2n1 [Example 29, 2-Chloro-4-(4-pyridin-2-yl-piperazin-1-yl)-7H-pyrrolo[2,3-d]pyrimidine]
< 1 | Cl.Clc1cc(N2CCN(c3ccccn3)CC2)c2nc[nH]c2n1 [Example 30, 5-Chloro-7-(4-pyridin-2-yl-piperazin-1-yl)-3H-imidazo[4,5-b]pyridine monohydrochloride]
< 1 | NC(=O)c1ccccc1N1CCN(c2cc(Cl)nc3[nH]cnc23)CC1 [Example 31, 2-[4-(5-Chloro-3H-imidazo[4,5-b]pyridin-7-yl)-piperazin-1-yl]-benzamide]

System: not given
Assay: not given
Conditions: not given

melting point [°C] | SMILES
264 to 266 | Cl.Clc1nc(N2CCN(Cc3ccccc3)CC2)c2nc[nH]c2n1 [Example 1, 2-Chloro-6-[4-(phenylmethyl)-piperazin-1-yl]-1H-purine monohydrochloride]
> 260 | Clc1cccc(N2CCN(c3nc(Cl)nc4[nH]cnc34)CC2)c1 [Example 13, 2-Chloro-6-[4-(3-chloro-phenyl)-piperazin-1-yl]1H-purine]
> 260 | Fc1nc(N2CCN(c3ccccn3)CC2)c2nc[nH]c2n1 [Example 23, 2-Fluoro-[4-(pyridin-2-yl)-piperazin-1-yl]1H-purine]
250 | Clc1nc(N2CCN(Cc3ccccc3)CC2)c2cc[nH]c2n1 [Example 28, 4-(4-Phenylmethyl-piperazin-1-yl)-2-chloro-7H-pyrrolo[2,3-d]pyrimidine]
> 260 | Cl.Clc1cc(N2CCN(c3ccccn3)CC2)c2nc[nH]c2n1 [Example 30, 5-Chloro-7-(4-pyridin-2-yl-piperazin-1-yl)-3H-imidazo[4,5-b]pyridine monohydrochloride]
